Where two headings read alike, the source gives them in different places. Where a SMILES comes first, the peptide text is derived from it. [ ]: non-standard residue; d: D form. The star is where a group is joined. DOTA = O=C(O)CN1CCN(CC(=O)O)CCN(CC(=O)*)CCN(CC(=O)O)CC1; EuK = O=C(O)CC[C@H](NC(=O)N[C@@H](CCCCN*)C(=O)O)C(=O)O; 2Nal = N[C@@H](Cc1ccc2ccccc2c1)C(=O)O; Trx = NC[C@H]1CC[C@H](C(=O)O)CC1
How the values were obtained:
PSMA+ LNCaP cells = assay: cell surface binding and internalization of radiolabeled compounds; format: cell-based; details: for Specific Cell Surface Binding / Specific Internalization / Cell Surface binding / Internalization: 68Ga-labeled; for Specific cell surface bound / Specific internalized: 177Lu-labeled, LNCaP cells
Method: (§1) PSMA^+ LNCaP cells (ATCC CRL-1740) were cultured in RPMI medium. Cells were grown at 37° C. in humidified air with 5% C02 and were harvested using trypsin-ethylenediaminetetraacetic acid.
(§2) The competitive cell binding assay and internalization experiments were performed according to Eder M et al. (2012), Bioconjug Chem 23(4):688.
For internalization experiments, 10^5 cells per well were seeded in poly-L-lysine coated 24-well cell culture plates 24 h before incubation. After washing, the cells were incubated with 30 nM of the ^68Ga- or ^177Lu-radiolabeled compound for 45 min at 37° C. and at 4° C., respectively. Cellular uptake was terminated by washing 3 times with 1 mL of ice-cold PBS. To remove surface-bound radioactivity, cells were incubated twice with 0.5 mL glycine-HCl in PBS (50 mM, pH=2.8) for 5 min. The cells were washed with 1 mL of ice-cold PBS and lysed using 0.3 N NaOH (0.5 mL). The surface-bound and the internalized fractions were measured in a gamma counter. The cell uptake was calculated as percent of the initially added radioactivity bound to 10^5 cells [% ID/10^5 cells].

PSMA = molecular target: T1, PSMA (Homo sapiens, UniProt Q04609); assay: competitive cell binding assay vs 68Ga-labeled PSMA-10 on LNCaP cells
T1 construct: host or cells: LNCaP cells
T1 sequence (Q04609 whole entry): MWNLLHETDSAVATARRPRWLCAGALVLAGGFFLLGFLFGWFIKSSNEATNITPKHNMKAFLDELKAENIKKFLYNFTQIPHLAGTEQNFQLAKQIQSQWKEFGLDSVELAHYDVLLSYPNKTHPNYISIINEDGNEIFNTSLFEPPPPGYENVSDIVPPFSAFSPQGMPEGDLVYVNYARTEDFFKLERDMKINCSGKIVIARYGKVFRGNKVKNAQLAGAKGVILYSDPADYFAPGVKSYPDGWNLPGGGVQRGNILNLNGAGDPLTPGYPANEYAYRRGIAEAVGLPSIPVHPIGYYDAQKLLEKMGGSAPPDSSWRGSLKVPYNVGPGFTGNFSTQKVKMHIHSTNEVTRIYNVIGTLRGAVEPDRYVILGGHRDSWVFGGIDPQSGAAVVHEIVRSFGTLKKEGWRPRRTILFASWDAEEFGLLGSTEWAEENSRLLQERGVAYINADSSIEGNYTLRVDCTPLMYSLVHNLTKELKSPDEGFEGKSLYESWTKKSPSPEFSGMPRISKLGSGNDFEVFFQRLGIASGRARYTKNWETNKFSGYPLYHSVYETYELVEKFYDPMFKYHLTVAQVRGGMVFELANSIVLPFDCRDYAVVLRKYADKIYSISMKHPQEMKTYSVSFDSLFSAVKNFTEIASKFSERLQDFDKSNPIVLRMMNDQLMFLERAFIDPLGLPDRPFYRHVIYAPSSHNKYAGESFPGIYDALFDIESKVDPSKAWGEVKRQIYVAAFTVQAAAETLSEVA
Method: as §1, §2
Briefly, the cells (10^5 per well) were incubated with a 0.8 nM solution of ^68Ga-labeled radioligand [Glu-urea-Lys(Ahx)]2-HBED-CC (PSMA-10, precursor ordered from ABX, Radeberg, Germany) in the presence of 12 different concentrations of analyte (0-5000 nM, 100 μL/well). After incubation, the mixture was removed and the wells were washed 3 times with PBS using a multiscreen vacuum manifold (Millipore, Billerica, Mass.). Cell-bound radioactivity was measured using a gamma counter (Packard Cobra II, GMI, Minnesota, USA). The 50% inhibitory concentration (IC50) values were calculated by fitting the data using a nonlinear regression algorithm (GraphPad Software).

[1] = LNCaP cells, 0.8 nM 68Ga-PSMA-10 radioligand, read-out: Specific Binding Affinity IC50

Compound | Specific Cell Surface Binding (PSMA+ LNCaP cells) | Specific Internalization (PSMA+ LNCaP cells) | Cell Surface binding (PSMA+ LNCaP cells; blocked) | Internalization (PSMA+ LNCaP cells; blocked) | Cell Surface binding (PSMA+ LNCaP cells; not blocked) | Internalization (PSMA+ LNCaP cells; not blocked) | IC50 (PSMA; [1]) | IC50 (PSMA) | Specific cell surface bound (PSMA+ LNCaP cells) | Specific internalized (PSMA+ LNCaP cells)
O=C(O)CC[C@H](NC(=O)N[C@@H](CCCCNC(=O)[C@H](Cc1ccc2ccccc2c1)NC(=O)[C@H]1CC[C@H](CNC(=O)[C@H](CCC(=O)O)NC(=O)[C@H](Cc2c[nH]cn2)NC(=O)[C@H](CCC(=O)O)NC(=O)[C@H](Cc2c[nH]cn2)NC(=O)[C@H](CCC(=O)O)NC(=O)[C@H](Cc2c[nH]cn2)NC(=O)CN2CCN(CC(=O)O)CCN(CC(=O)O)CCN(CC(=O)O)CC2)CC1)C(=O)O)C(=O)O [PS-4.2, DOTA-(HE)3-CHx-2NaI-PSMA] ({DOTA}-HEHEHE[Trx][2Nal]-EuK) | 1.35 ± 0.28 % ID/10^5 cells | 0.71 ± 0.28 % ID/10^5 cells | 0.080 ± 0.010 % ID/10^5 cells | 0.113 ± 0.023 % ID/10^5 cells | 1.437 ± 0.138 % ID/10^5 cells | 0.676 ± 0.070 % ID/10^5 cells | 0.0279 ± 0.00693 µM | – | – | –
O=C(O)CC[C@H](NC(=O)N[C@@H](CCCCNC(=O)[C@H](Cc1ccc2ccccc2c1)NC(=O)[C@H]1CC[C@H](CNC(=O)[C@H](Cc2c[nH]cn2)NC(=O)[C@H](Cc2c[nH]cn2)NC(=O)[C@H](Cc2c[nH]cn2)NC(=O)CN2CCN(CC(=O)O)CCN(CC(=O)O)CCN(CC(=O)O)CC2)CC1)C(=O)O)C(=O)O [PS-7, DOTA-(H)3-CHx-2NaI-PSMA] ({DOTA}-HHH[Trx][2Nal]-EuK) | 0.69 ± 0.11 % ID/10^5 cells | 0.47 ± 0.11 % ID/10^5 cells | 0.123 ± 0.015 % ID/10^5 cells | 0.207 ± 0.021 % ID/10^5 cells | 0.817 ± 0.047 % ID/10^5 cells | 0.673 ± 0.093 % ID/10^5 cells | 0.0227 ± 0.00647 µM | – | – | –
O=C(O)CC[C@H](NC(=O)N[C@@H](CCCCNC(=O)[C@H](Cc1c[nH]cn1)NC(=O)[C@H](Cc1c[nH]cn1)NC(=O)[C@H](Cc1c[nH]cn1)NC(=O)[C@H](Cc1ccc2ccccc2c1)NC(=O)[C@H]1CC[C@H](CNC(=O)CN2CCN(CC(=O)O)CCN(CC(=O)O)CCN(CC(=O)O)CC2)CC1)C(=O)O)C(=O)O [PS-8, DOTA-CHx-2NaI-(H)3-PSMA] ({DOTA-Trx}-[2Nal]HHH-EuK) | 0.90 ± 0.03 % ID/10^5 cells | 0.51 ± 0.05 % ID/10^5 cells | 0.038 ± 0.010 % ID/10^5 cells | 0.093 ± 0.033 % ID/10^5 cells | 0.945 ± 0.030 % ID/10^5 cells | 0.600 ± 0.066 % ID/10^5 cells | 0.0786 ± 0.0441 µM | – | – | –
O=C(O)CC[C@H](NC(=O)N[C@@H](CCCCNC(=O)[C@H](CCC(=O)O)NC(=O)[C@H](CCC(=O)O)NC(=O)[C@H](CCC(=O)O)NC(=O)[C@H](Cc1ccc2ccccc2c1)NC(=O)[C@H]1CC[C@H](CNC(=O)CN2CCN(CC(=O)O)CCN(CC(=O)O)CCN(CC(=O)O)CC2)CC1)C(=O)O)C(=O)O [PS-6, DOTA-CHx-2NaI-(E)3-PSMA] ({DOTA-Trx}-[2Nal]EEE-EuK) | 0.71 ± 0.12 % ID/10^5 cells | 0.45 ± 0.12 % ID/10^5 cells | 0.050 ± 0.020 % ID/10^5 cells | 0.156 ± 0.023 % ID/10^5 cells | 0.767 ± 0.156 % ID/10^5 cells | 0.607 ± 0.136 % ID/10^5 cells | 0.0286 ± 0.00842 µM | – | – | –
O=C(O)CC[C@H](NC(=O)N[C@@H](CCCCNC(=O)[C@H](Cc1ccc2ccccc2c1)NC(=O)[C@H]1CC[C@H](CNC(=O)[C@H](CCC(=O)O)NC(=O)[C@H](CCC(=O)O)NC(=O)[C@H](CCC(=O)O)NC(=O)CN2CCN(CC(=O)O)CCN(CC(=O)O)CCN(CC(=O)O)CC2)CC1)C(=O)O)C(=O)O [PS-5, DOTA-(E)3-CHx-2NaI-PSMA] ({DOTA}-EEE[Trx][2Nal]-EuK) | 0.94 ± 0.13 % ID/10^5 cells | 0.63 ± 0.28 % ID/10^5 cells | 0.055 ± 0.013 % ID/10^5 cells | 0.095 ± 0.026 % ID/10^5 cells | 1.003 ± 0.127 % ID/10^5 cells | 0.725 ± 0.269 % ID/10^5 cells | – | 0.0104 ± 0.00294 µM | – | –
O=C(O)CC[C@H](NC(=O)N[C@@H](CCCCNC(=O)[C@H](Cc1c[nH]cn1)NC(=O)[C@H](CCC(=O)O)NC(=O)[C@H](Cc1c[nH]cn1)NC(=O)[C@H](CCC(=O)O)NC(=O)[C@H](Cc1c[nH]cn1)NC(=O)[C@H](CCC(=O)O)NC(=O)[C@H](Cc1ccc2ccccc2c1)NC(=O)[C@H]1CC[C@H](CNC(=O)CN2CCN(CC(=O)O)CCN(CC(=O)O)CCN(CC(=O)O)CC2)CC1)C(=O)O)C(=O)O [PS-1, DOTA-CHx-2NaI-(EH)3-PSMA] ({DOTA-Trx}-[2Nal]EHEHEH-EuK) | 1.09 ± 0.17 % ID/10^5 cells | 0.46 ± 0.11 % ID/10^5 cells | 0.069 ± 0.013 % ID/10^5 cells | 0.212 ± 0.037 % ID/10^5 cells | 1.162 ± 0.183 % ID/10^5 cells | 0.676 ± 0.155 % ID/10^5 cells | 0.056 ± 0.0077 µM | – | 6.84 ± 0.06 % ID/10^5 cells | 4.32 ± 0.03 % ID/10^5 cells
O=C(O)CCC(NC(=O)NC(CCCCNC(=O)C(Cc1ccc2ccccc2c1)NC(=O)C1CCC(CNC(=O)CN2CCN(CC(=O)O)CCN(CC(=O)O)CCN(CC(=O)O)CC2)CC1)C(=O)O)C(=O)O (stereo not drawn) [PSMA-617, 2-[3-(1-Carboxy-5-{3-naphthalen-2-yl-2-[(4-{[2-(4,7,10-tris-carboxymethyl-1,4,7,10-tetraaza-cyclododec-1-yl)-acetylamino]-methyl}-cyclohexanecarbonyl)-amino]-propionylamino}-pentyl)-ureido]-pentanedioic acid, reference compound] | 0.72 ± 0.06 % ID/10^5 cells | 0.39 ± 0.06 % ID/10^5 cells | 0.063 ± 0.014 % ID/10^5 cells | 0.117 ± 0.032 % ID/10^5 cells | 0.792 ± 0.134 % ID/10^5 cells | 0.504 ± 0.051 % ID/10^5 cells | 0.0218 ± 0.00313 µM | – | 4.36 ± 1.33 % ID/10^5 cells | 2.94 ± 0.35 % ID/10^5 cells
O=C(O)CC[C@H](NC(=O)N[C@@H](CCCCNC(=O)[C@H](Cc1ccc2ccccc2c1)NC(=O)[C@H](Cc1c[nH]cn1)NC(=O)[C@H](Cc1c[nH]cn1)NC(=O)[C@H](Cc1c[nH]cn1)NC(=O)[C@H]1CC[C@H](CNC(=O)CN2CCN(CC(=O)O)CCN(CC(=O)O)CCN(CC(=O)O)CC2)CC1)C(=O)O)C(=O)O [PS10, DOTA-CHx-(H)3-2NaI-PSMA] ({DOTA-Trx}-HHH[2Nal]-EuK) | 0.55 ± 0.08 % ID/10^5 cells | 0.44 ± 0.08 % ID/10^5 cells | 0.027 ± 0.006 % ID/10^5 cells | 0.083 ± 0.006 % ID/10^5 cells | 0.580 ± 0.046 % ID/10^5 cells | 0.523 ± 0.078 % ID/10^5 cells | 0.054 ± 0.0209 µM | – | – | –
O=C(O)CC[C@H](NC(=O)N[C@@H](CCCCNC(=O)[C@H](Cc1ccc2ccccc2c1)NC(=O)[C@H]1CC[C@H](CNC(=O)[C@H](Cc2c[nH]cn2)NC(=O)[C@H](CCC(=O)O)NC(=O)[C@H](Cc2c[nH]cn2)NC(=O)[C@H](CCC(=O)O)NC(=O)[C@H](Cc2c[nH]cn2)NC(=O)[C@H](CCC(=O)O)NC(=O)CN2CCN(CC(=O)O)CCN(CC(=O)O)CCN(CC(=O)O)CC2)CC1)C(=O)O)C(=O)O [PS-2, DOTA-(EH)3-CHx-2NaI-PSMA] ({DOTA}-EHEHEH[Trx][2Nal]-EuK) | 1.27 ± 0.15 % ID/10^5 cells | 0.61 ± 0.15 % ID/10^5 cells | 0.060 ± 0.017 % ID/10^5 cells | 0.187 ± 0.032 % ID/10^5 cells | 1.333 ± 0.127 % ID/10^5 cells | 0.797 ± 0.122 % ID/10^5 cells | 0.037 ± 0.0114 µM | – | 9.55 ± 1.61 % ID/10^5 cells | 6.00 ± 0.71 % ID/10^5 cells
